The conditions of data set [1]: cited from earlier work; for Sweetness potency: commonly accepted potency figures, weight basis.
The conditions of data set [2]: cited from earlier work.
The format of data set [3] is physicochemical. The text has this:
Traditionally, the beverage industry makes certain carbonated beverages by first making concentrated syrup and then diluting the syrup with water at the time and place of making the beverage. The dilution ratio in such beverages is often 1:5; meaning one part syrup is mixed with five parts water. The beverage often is carbonated at the time of being bottled or otherwise packaged. For any ingredient to be incorporated into such a 1:5 syrup, the solubility of the ingredient in the syrup must be at least six times higher than its desired concentration in the finished beverage. […] It would be advantageous, therefore, to develop improved methods of incorporating rebaudioside D into an aqueous solution.

Residues, ends and D or L forms follow the SMILES beside them.

As to `OC[C@H]1O[C@H](O[C@]2(CCl)O[C@H](CCl)[C@@H](O)[C@@H]2O)[C@H](O)[C@@H](O)[C@H]1Cl` [Sucralose], the Sweetness potency in data set [1] is 600 times as sweet as sugar.

As for `COc1ccc(CCC(=O)c2c(O)cc(O[C@@H]3O[C@H](CO)[C@@H](O)[C@H](O)[C@H]3O[C@@H]3O[C@@H](C)[C@H](O)[C@@H](O)[C@H]3O)cc2O)cc1O` [Neohesperidin dihydrochalcone], in data set [1], the Sweetness potency is listed as 300 times as sweet as sugar. Regarding `C[C@H](CC[C@@H](O[C@@H]1O[C@H](CO[C@@H]2O[C@H](CO)[C@@H](O)[C@H](O)[C@H]2O)[C@@H](O)[C@H](O)[C@H]1O[C@@H]1O[C@H](CO)[C@@H](O)[C@H](O)[C@H]1O)C(C)(C)O)[C@H]1CC[C@@]2(C)[C@@H]3CC=C4[C@@H](CC[C@H](O[C@@H]5O[C@H](CO[C@@H]6O[C@H](CO)[C@@H](O)[C@H](O)[C@H]6O)[C@@H](O)[C@H](O)[C@H]5O)C4(C)C)[C@]3(C)[C@H](O)C[C@]12C` [Mogroside V], in data set [1], the Sweetness potency is 100-300 times as sweet as sugar. On to `C=C1C[C@@]23CC[C@H]4[C@@](C)(CCC[C@@]4(C)C(=O)O[C@@H]4O[C@H](CO)[C@@H](O)[C@H](O)[C@H]4O)[C@@H]2CC[C@]1(O[C@@H]1O[C@H](CO)[C@@H](O)[C@H](O[C@@H]2O[C@H](CO)[C@@H](O)[C@H](O)[C@H]2O)[C@H]1O[C@@H]1O[C@H](CO)[C@@H](O)[C@H](O)[C@H]1O)C3` [Rebaudioside A, rebaudioside A], for which the “Solubility in aqueous solution” value in data set [2] (room temperature) is recorded as “at least 3000 ppm”. The “Water solubility (in words)” value in data set [2] is given as “more soluble than stevioside”. In addition, the “Sweetness relative to sucrose” value in data set [1] (background statement) is “approximately 200 times sweeter than sucrose”. Also, the Sweetness potency in data set [1] is 150-300 times as sweet as sugar. In the case of `COC(=O)[C@H](Cc1ccccc1)NC(=O)[C@@H](N)CC(=O)O` [Aspertame] (H-Asp-Phe-OMe), in data set [1], the Sweetness potency is listed as 200 times as sweet as sugar. Consider `COC(=O)[C@H](Cc1ccccc1)NC(=O)[C@H](CC(=O)O)NCCC(C)(C)C` [Neotame], for which the Sweetness potency in data set [1] is recorded as 8,000 times as sweet as sugar. Consider `CC1=CC(=O)[N-]S(=O)(=O)O1.[K+]` [Acesulfame-K], for which the Sweetness potency in data set [1] is recorded as 200 times as sweet as sugar.

Turning to `C=C1C[C@@]23CC[C@H]4[C@@](C)(CCC[C@@]4(C)C(=O)O[C@@H]4O[C@H](CO)[C@@H](O)[C@H](O)[C@H]4O)[C@@H]2CC[C@]1(O[C@@H]1O[C@H](CO)[C@@H](O)[C@H](O)[C@H]1O[C@@H]1O[C@H](CO)[C@@H](O)[C@H](O)[C@H]1O)C3` [Stevioside, stevioside], in data set [2], the “Water solubility (in words)” value is on record as “only sparingly soluble in water”. Moreover, in data set [1], the Sweetness potency is recorded as 100-250 times as sweet as sugar.

As to `O=C1NS(=O)(=O)c2ccccc21` [Saccharine], the Sweetness potency in data set [1] is recorded as 300 times as sweet as sugar. In the case of `C=C1C[C@@]23CC[C@H]4[C@@](C)(CCC[C@@]4(C)C(=O)O[C@@H]4O[C@H](CO)[C@@H](O)[C@H](O)[C@H]4O[C@@H]4O[C@H](CO)[C@@H](O)[C@H](O)[C@H]4O)[C@@H]2CC[C@]1(O[C@@H]1O[C@H](CO)[C@@H](O)[C@H](O[C@@H]2O[C@H](CO)[C@@H](O)[C@H](O)[C@H]2O)[C@H]1O[C@@H]1O[C@H](CO)[C@@H](O)[C@H](O)[C@H]1O)C3` [Rebaudioside D, rebaudioside D], the “Water solubility (in words)” value in data set [2] is given as “low”. Besides, the Sweetness potency in data set [1] was 180-200 times as sweet as sugar. For the same compound, the “Stable solubility in aqueous solution” value in data set [3] is reported as “no more than 450 ppm”.

The values above are taken from patent publication US20200315232A1, “Method to Improve Dispersibility of a Material Having Low Solubility in Water” (PepsiCo, Inc., priority 2012, published 2020).
